# Measured values: patent publication US7452549B2, “Synergistic antioxidant combination of delta tocols and polyphenols” (Nestec S.A., priority 2001, dated 2008)
# System: LDL fraction
# Assay: Oxidation of LDL in vitro (Cu2+-initiated, conjugated diene absorbance at 234 nm, lag phase)
# Format: biochemical, human
# Details: for synergistic antioxidant properties in combination with TRF or purified δ-tocol: non-polyphenolic antioxidants
# Protocol: Oxidation of LDL In Vitro Plasma was obtained from the blood of healthy male and female volunteers and was frozen. […] Tubes were then centrifuged at 400 000 g at 15° C. for 2 hours. The top fraction (chylomicrons+VLDL) was removed. […] After centrifugation at 400 000 g at 15° C. for 2 hours, the LDL fraction floating on the top was collected. […] The fractions were supplemented with ethanolic solutions containing various extracts or with the same volume of pure ethanol (control). Oxidation was initiated by adding freshly-prepared CuSO4 solution (25 μmol/l final concentration) at 37° C. The kinetics of the oxidation of lipoprotein was determined by continuously monitoring the change in absorbance at 234 nm (at 37° C.) on a UV/VIS spectrophotometer, which correlates with the increase in conjugated diene absorbance. […] The time required for the formation of diene is defined as the lag phase. The longer the lag phase the better the protection of LDL against oxidation. […] Concentration-response curves for the LDL oxidation assay were plotted separately for each of the tocol preparations, and for the water-soluble antioxidant preparations (see FIGS. 1 to 5). In each experiment, the tocotrienol content of the tocol preparations (TRF) was standardised to 0.05 or 0.1 μg/ml.
SMILES,synergistic antioxidant properties in combination with TRF or purified δ-tocol,relative performance of δ-tocotrienol vs δ-tocopherol in in vitro LDL oxidation studies,synergistic effect with polyphenols in in vitro LDL oxidation studies
CC(=O)N[C@@H](CS)C(=O)O [N-acetylcysteine],same lack of synergy,–,–
CC(C)=CCC/C(C)=C/CC/C(C)=C/CC[C@]1(C)CCc2cc(O)cc(C)c2O1 [δ-tocotrienol],–,performs marginally better,remarkable synergistic effects
O=C(O)CCCCC1CCSS1 (stereo not drawn) [α-lipoic acid],same lack of synergy,–,–
O=C1O[C@H]([C@@H](O)CO)C(O)=C1O [ascorbic acid],not to have synergistic antioxidant properties,–,–
Cc1cc(O)cc2c1O[C@](C)(CCC[C@H](C)CCC[C@H](C)CCCC(C)C)CC2 [δ-tocopherol],–,–,remarkable synergistic effects
